One test deals with Cytotoxicity. The experiment in a line: NFkB reporter suppression in cystic fibrosis bronchial cells – cell-based, uHTS hits, panel, cytotoxicity readout, dose response (AID 624344). The following applies: CF bronchial epithelial cells, mean of runs.
Assay in test [1]: as above
As to conditions: CF bronchial epithelial cells, PAF-induced NFkB reporter inhibition; with PAF, mean of runs.

Structures are written as SMILES. Activity calls are given as the source filed them. No rule for the calls is given here.

For orientation: IC50 means the concentration needed to halve the response being measured. Consider `COc1cc2c(c(OC)c1OC)-c1ccc(O)cc1C(NC(C)=O)CC2` (stereo unspecified), for which the IC50 (in the test on Cytotoxicity; in test [1]) was > 79 µM (inactive) each time.

Consider `CC(=O)Nc1ccc(-c2ccnc3c2CC(C(=O)NCc2ccco2)O3)cc1` (stereo unspecified), for which, in the test with Cytotoxicity, the IC50 was > 79 µM (inactive). Further, in test [1], the IC50 result is “inactive”.

On to `O=C(c1cncc(Br)c1)N1CCc2ccccc2C1`, for which the IC50 in the test with Cytotoxicity was > 79 µM (inactive); in test [1], 8.73 µM.

In the case of `CCCN(CC)c1ncnc2[nH]ncc12`, the figures for the IC50 (in the test with Cytotoxicity; in test [1]) were 36.3 µM and 1.55 µM, respectively.

Turning to `Cc1nn(-c2nccs2)c2c1C(=O)CC(C)(C)C2Br` (stereo unspecified), the IC50 in the test on Cytotoxicity was 38.8 µM; in test [1], 5.11 µM.

Take `O=[N+]([O-])C1C(c2ccccc2)C12c1ccccc1-c1ccccc12` (stereo unspecified): the IC50 with Cytotoxicity is 64.1 µM (inactive). For the same compound, in test [1], the IC50 entry is “inactive”.

Consider `C=CCSc1nc2ccccc2n1C(=O)/C=C/c1ccc(OC)c(OC)c1`, for which the IC50 was 62 µM (inactive) in the test on Cytotoxicity and 3.46 µM in test [1].

For `Nc1nccc(-c2ccc(-n3cnc4ccccc43)cc2)n1`, the IC50 in the test with Cytotoxicity was 49.1 µM; in test [1], 2.13 µM.

As to `COc1ccc2[nH]c3c(c2c1)CCN1C(=O)C(CC(=O)NCCC2=CCCCC2)C[C@H](C(=O)N2CCCCC2)[C@@]31CCc1ccccc1` (stereo partly specified), the IC50 was 44.1 µM in the test with Cytotoxicity and 8.09 µM in test [1].

With `C=CC[C@@H](CC(=O)N(CCO)Cc1ccccc1)C(=O)NC[C@H](OC(=O)[C@@H](CC=C)Cc1ccc(F)cc1)c1ccccc1`, the 50% inhibitory concentration (IC50) in the test with Cytotoxicity was 4.23 µM; in test [1], 4.05 µM.

For the compound `O=C(c1ccc(O)c(Br)c1)c1cc(Br)ccc1O`, the IC50 was 16.4 µM in the test on Cytotoxicity and 4.08 µM in test [1].

For the compound `O=C(Nc1nnc(C(F)(F)F)s1)c1ccc(Br)s1`, the values for the IC50 (in the test with Cytotoxicity; in test [1]) were 27.8 µM and 2.28 µM, respectively.

For the compound `C=C1C(=O)[C@]23C[C@H]1CCC2[C@]1(C)C(=O)CC[C@@](C)(C(=O)O)C1C[C@@H]3O` (stereo partly specified), the IC50 in the test with Cytotoxicity is 14.4 µM; in test [1] it was 0.96 µM.

Take `Cc1ccccc1C(=O)N1CCN(c2ccc(NC(=O)CSc3ccc(Cl)cc3)cc2)CC1`: the IC50 with Cytotoxicity is > 79 µM (inactive); in test [1], 0.879 µM.

For the compound `COc1ccc(C2CNC(=O)C2)cc1OC1CCCC1` (stereo unspecified), the values for the IC50 (in the test with Cytotoxicity; in test [1]) were 40.7 µM and 11.3 µM, respectively.

Consider `C[C@@H](NC(=O)c1coc(=O)c(Br)c1)c1ccccc1`, for which the IC50 in the test with Cytotoxicity is 4.95 µM; in test [1], 4.1 µM.

Regarding `O=C(Nc1nc2ccc(F)cc2s1)C1CCN(S(=O)(=O)c2cc([N+](=O)[O-])ccc2Cl)CC1`, the IC50 in the test with Cytotoxicity was 10.8 µM; in test [1], 6.4 µM.

As for `CC(C)C[C@H]1CNC(=S)N1C[C@H]1CCCN1C[C@H](Cc1ccc(O)cc1)N1C[C@H](Cc2ccc(O)cc2)N(CC2CCCCC2)C1=S`, the IC50 in the test with Cytotoxicity was 51.2 µM (inactive). For the same compound, the IC50 entry in test [1] is “inactive”.

As for `COc1ccc(-c2cncnc2-c2ccc(OC)cc2O)cc1`, the IC50 is > 79 µM (inactive) in the test on Cytotoxicity and 4.39 µM in test [1].

On to `COc1cc(/C=C2\SC(=O)N(CCNC(=O)c3sc4cc(F)ccc4c3Cl)C2=O)cc(OC)c1OC`, for which the IC50 is 11.3 µM in the test with Cytotoxicity and 7.99 µM in test [1].

As for `COc1ccc(N(Cc2cc(=O)[nH]c3ccccc23)C(=O)CCl)cc1`, the IC50 was 4.29 µM in the test with Cytotoxicity and 2.89 µM in test [1].

On to `CCc1ccc(N(CC)c2ncnc3nc[nH]c23)cc1`, for which the results for the IC50 (with Cytotoxicity; in test [1]) were > 79 µM (inactive) and 1.82 µM, respectively.

On to `COc1ccc(-c2cn[nH]c2-c2ccc(OCc3ccc([N+](=O)[O-])cc3)cc2O)cc1`, for which the figures for the IC50 (with Cytotoxicity; in test [1]) were 31.8 µM and 4.72 µM, respectively.

With `Cc1csc(CNc2ncnc3ccc(-c4ccoc4)cc23)c1`, the IC50 with Cytotoxicity is 13.8 µM; in test [1], < 0.3 µM.

As for `Cc1ccc(CNc2ncnc(N)c2[N+](=O)[O-])cc1`, the IC50 with Cytotoxicity was 73.3 µM (inactive); in test [1], 6.41 µM.

As for `C[C@H](CO)N1C[C@H](C)[C@@H](CN(C)C(=O)Nc2ccc3c(c2)OCO3)Oc2c(NC(=O)Nc3ccc(C(F)(F)F)cc3)cccc2C1=O`, the IC50 with Cytotoxicity is 5.77 µM; in test [1], 3.05 µM.

On to `CCCc1nc(Cl)c(C#N)c2c1CCCC2`, for which the values for the IC50 (with Cytotoxicity; in test [1]) were 73 µM (inactive) and 4.3 µM, respectively.

As for `CC1(C)Cc2c(ccc3ccccc23)C(=O)N1`, the IC50 in the test with Cytotoxicity is > 79 µM (inactive); in test [1], 3.27 µM.

Take `Cc1cnc(C=O)c2cccc([N+](=O)[O-])c12`: the IC50 in the test on Cytotoxicity was 60.6 µM (inactive); in test [1], 3.35 µM.

As for `O=C(Nc1ccc(Br)c2ccccc12)c1ccc2ccccc2c1O`, the IC50 in the test on Cytotoxicity was 2.38 µM; in test [1], 1.93 µM.

Consider `C=Cc1ccc(CC2(C)C(=O)Nc3ccc(-c4cccnc4)cc32)cc1` (stereo unspecified), for which the IC50 is 41.9 µM in the test on Cytotoxicity and 3.36 µM in test [1].

Regarding `COc1ccc(NC(=O)c2cc3c(-c4ccc(OC)c(OC)c4)nn(C)c3s2)cc1OC`, the IC50 was 5.55 µM in the test on Cytotoxicity and 6.06 µM in test [1].

As to `CC(C)C[C@H]1CNC(=S)N1C[C@H]1CCCN1C[C@H](Cc1ccccc1)N1C[C@H](Cc2ccc(O)cc2)N(CC2CCCCCC2)C1=S`, the IC50 is 28.6 µM with Cytotoxicity and 15.3 µM in test [1].

The values above are taken from PubChem BioAssay AID624344 (Sanford-Burnham Center for Chemical Genomics, 2012).
